From US20250134869A1, “Pyrrolo[2,3-d]pyrimidinyl, Pyrrolo[2,3-b]pyrazinyl and Pyrrolo[2,3-d]pyridinyl Acryla-mides” (Pfizer Inc, priority 2021, published 2025)
pIC50: −log10 of the molar value. Like-named read-outs stand apart in the source and are kept apart here.

Biological target: JAK3 enzyme (Homo sapiens (Human), UniProt P52333)
Test: JAK Caliper Enzyme Assay at 4 μM or 1 mM ATP
Format: biochemical
Protocol: JAK Caliper Enzyme Assay at […] or 1 mM ATP
Test article was solubilized in dimethyl sulfoxide (DMSO) to a stock concentration of 30 mM. An 11-point half log dilution series was created in DMSO with a top concentration of 600 μM. […] The compound plates were diluted 1 to 60 resulting in a top final assay compound concentration of 10 μM and a 2% DMSO concentration.
Test article and assay controls were added to a 384-well plate. Reaction mixtures contained 20 mM HEPES, pH 7.4, 10 mM magnesium chloride, 0.01% bovine serum albumin (BSA), 0.0005% Tween […] or 1 mM ATP and […] peptide substrate. […] The assays were initiated by the addition 1 nM JAK3 enzyme and were incubated at room temperature 75 minutes for JAK3. Enzyme concentrations and incubation times were optimized for each new enzyme preps and were modified slightly over time to ensure 20%-30% phosphorylation. The assays were stopped with a final concentration of 10 mM EDTA, 0.1% Coating Reagent and 100 mM HEPES, pH=7.4. The assay plates were placed on a Caliper Life Science Lab Chip 3000 (LC3000) instrument, and each well was sampled using appropriate separation conditions to measure the unphosphorylated and phosphorylated peptide.

[1] = read-out: JAK3 (4 μM ATP) IC50, 4 μM ATP
[2] = read-out: JAK3 (1 mM ATP) IC50, 1 mM ATP

JAK3 enzyme, sequence (P52333 whole entry, species assumed): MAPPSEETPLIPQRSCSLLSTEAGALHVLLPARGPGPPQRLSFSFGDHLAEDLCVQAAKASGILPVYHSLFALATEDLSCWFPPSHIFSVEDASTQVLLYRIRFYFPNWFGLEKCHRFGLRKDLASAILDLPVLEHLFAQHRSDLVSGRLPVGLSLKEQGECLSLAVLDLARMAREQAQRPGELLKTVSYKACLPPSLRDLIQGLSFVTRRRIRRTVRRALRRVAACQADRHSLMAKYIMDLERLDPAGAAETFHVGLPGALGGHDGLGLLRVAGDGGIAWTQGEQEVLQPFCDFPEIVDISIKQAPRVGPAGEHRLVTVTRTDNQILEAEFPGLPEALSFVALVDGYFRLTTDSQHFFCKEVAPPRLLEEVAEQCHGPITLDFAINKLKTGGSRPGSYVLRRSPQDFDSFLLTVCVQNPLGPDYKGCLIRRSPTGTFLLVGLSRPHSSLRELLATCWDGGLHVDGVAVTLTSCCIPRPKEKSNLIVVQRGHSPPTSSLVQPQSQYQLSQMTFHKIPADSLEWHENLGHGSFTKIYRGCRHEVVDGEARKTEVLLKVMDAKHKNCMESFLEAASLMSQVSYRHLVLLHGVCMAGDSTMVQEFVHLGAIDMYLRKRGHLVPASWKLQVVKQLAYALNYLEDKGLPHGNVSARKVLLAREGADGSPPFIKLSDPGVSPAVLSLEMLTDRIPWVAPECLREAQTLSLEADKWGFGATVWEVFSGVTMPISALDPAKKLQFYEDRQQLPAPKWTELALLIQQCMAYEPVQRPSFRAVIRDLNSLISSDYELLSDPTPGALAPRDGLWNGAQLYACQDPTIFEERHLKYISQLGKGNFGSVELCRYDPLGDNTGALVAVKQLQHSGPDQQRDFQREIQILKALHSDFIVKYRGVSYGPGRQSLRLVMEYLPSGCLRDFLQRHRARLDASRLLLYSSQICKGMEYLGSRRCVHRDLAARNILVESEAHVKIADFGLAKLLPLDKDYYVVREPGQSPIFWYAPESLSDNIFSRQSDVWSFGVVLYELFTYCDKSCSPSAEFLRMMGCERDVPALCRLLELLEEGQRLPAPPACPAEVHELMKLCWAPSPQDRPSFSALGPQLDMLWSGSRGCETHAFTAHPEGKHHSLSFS

Structure (SMILES)	pIC50 [1]	pIC50 [2]
C=C(C)C(=O)N1CCC[C@@H](N2CC(C)c3c[nH]c4ncnc2c34)C1 (mixture of isomers) [Example 153, 2-Methyl-1-[(3R)-3-(3-methyl-3,4-dihydro-1,5,6,8-tetraazaacenaphthylen-5 (1H)-yl)piperidin-1-yl]prop-2-en-1-one]	5.02	–
C/C=C/C(=O)N1CCC[C@@H](N2CC(C)c3c[nH]c4ncnc2c34)C1 (mixture of isomers) [Example 154, (2E)-1-[(3R)-3-(3-methyl-3,4-dihydro-1,5,6,8-tetraazaacenaphthylen-5 (1H)-yl)piper-idin-1-yl]but-2-en-1-one]	5.31	–
C=CC(=O)N1C[C@H](Nc2ncnc3[nH]ccc23)CC[C@@H]1CC (single isomer, unassigned) [Example 9]	9.40	7.27
C=CC(=O)N1CC[C@H](F)[C@@H](Nc2ncnc3[nH]ccc23)C1 [Example 4, 1-((3S,4S)-3-((7H-pyrrolo[2,3-d]pyrimidin-4-yl)amino)-4-fluoropiperidin-1-yl)prop-2-en-1-one]	9.30	7.49
C=CC(=O)N1C[C@H](C#N)C[C@@H](Nc2ncnc3[nH]ccc23)C1 [Example 6, (3R,5R)-5-((7H-pyrrolo[2,3-d]pyrimidin-4-yl)amino)-1-acryloylpiperidine-3-carbonitrile]	9.52	7.40
C=CC(=O)N1CCC[C@@H](Nc2ncnc3[nH]ccc23)C1 [Example 12, (R)-1-(3-((7H-Pyrrolo[2,3-d]pyrimidin-4-yl)amino)piperidin-1-yl)prop-2-en-1-one]	9.15	7.25
C=CC(=O)N1C[C@H](Nc2ncnc3[nH]cc(CCOC)c23)CC[C@@H]1C [Example 13, 1-((2S,5R)-5-((5-(2-Methoxyethyl)-7H-pyrrolo[2,3-d]pyrimidin-4-yl)amino)-2-methylpiperidin-1-yl)prop-2-en-1-one]	9.40	7.22
C=CC(=O)N1C[C@@H](F)C[C@@H](Nc2ncnc3[nH]ccc23)C1 [Example 15, 1-((3R,5S)-3-((7H-Pyrrolo[2,3-d]pyrimidin-4-yl)amino)-5-fluoropiperidin-1-yl)prop-2-en-1-one]	9.05	7.08
C=CC(=O)N1C[C@@H](O)C[C@@H](Nc2ncnc3[nH]ccc23)C1 [Example 17, 1-((3R,5S)-3-(7H-Pyrrolo[2,3-d]pyrimidin-4-ylamino)-5-hydroxypiperidin-1-yl)prop-2-en-1-one]	8.77	7.04
C=CC(=O)N1C[C@H](Nc2ncnc3[nH]cc(Cl)c23)CC[C@@H]1C [Example 18, 1-((2S,5R)-5-((5-Chloro-7H-pyrrolo[2,3-d]pyrimidin-4-yl)amino)-2-methylpiperidin-1-yl)prop-2-en-1-one]	9.70	7.79
C=CC(=O)N1C[C@H](Nc2ncnc3[nH]ccc23)C[C@H](OC)C1 [Example 19, 1-((3R,5S)-3-((7H-Pyrrolo[2,3-d]pyrimidin-4-yl)amino)-5-methoxypiperidin-1-yl)prop-2-en-1-one]	9.22	7.17
C=CC(=O)N1CCC[C@@H](Nc2ncnc3[nH]cc(CC#N)c23)C1 [Example 20, (R)-2-(4-((1-Acryloylpiperidin-3-yl)amino)-7H-pyrrolo[2,3-d]pyrimidin-5-yl)acetonitrile]	9.00	7.12
C=CC(=O)N1CCC[C@@H](Nc2ncnc3[nH]cc(-c4cncc(F)c4)c23)C1 [Example 23, 1-[(3R)-3-{[5-(5-fluoropyridin-3-yl)-7H-pyrrolo[2,3-d]pyrimidin-4-yl]amino}piperidin-1-yl]prop-2-en-1-one]	8.89	7.06
C=CC(=O)N1CCC[C@@H](Nc2ncnc3[nH]cc(-c4cncc(OC)c4)c23)C1 [Example 24, 1-[(3R)-3-{[5-(5-methoxypyridin-3-yl)-7H-pyrrolo[2,3-d]pyrimidin-4-yl]amino}piperidin-1-yl]prop-2-en-1-one]	8.92	7.01
C=CC(=O)N1CCC[C@@H](Nc2ncnc3[nH]cc(-c4ccccc4O)c23)C1 [Example 25, 1-[(3R)-3-{[5-(2-hydroxyphenyl)-7H-pyrrolo[2,3-d]pyrimidin-4-yl]amino}piperidin-1-yl]prop-2-en-1-one]	8.54	6.83
C=CC(=O)N1CCC[C@@H](Nc2ncnc3[nH]cc(-c4cccnc4)c23)C1 [Example 26, 1-[(3R)-3-{[5-(pyridin-3-yl)-7H-pyrrolo[2,3-d]pyrimidin-4-yl]amino}piperidin-1-yl]prop-2-en-1-one]	8.80	6.82

Structure (SMILES)	pIC50 [1]	pIC50 [2]
C=CC(=O)N1CCC[C@@H](Nc2ncnc3[nH]cc(-c4ccc(C(=O)N(C)C)cc4)c23)C1 [Example 27, 4-(4-{[(3R)-1-acryloylpiperidin-3-yl]amino}-7H-pyrrolo[2,3-d]pyrimidin-5-yl)-N,N-dimethylbenzamide]	8.55	6.53
C=CC(=O)N1CCC[C@@H](Nc2ncnc3[nH]cc(-c4ccc5c(cnn5C)c4)c23)C1 [Example 34, 1-[(3R)-3-{[5-(1-methyl-1H-indazol-5-yl)-7H-pyrrolo[2,3-d]pyrimidin-4-yl]amino}piperidin-1-yl]prop-2-en-1-one]	7.26	5.32
C=CC(=O)N1CCC[C@@H](Nc2ncnc3[nH]cc(-c4cnc(N5CCOCC5)nc4)c23)C1 [Example 35, 1-[(3R)-3-({5-[2-(morpholin-4-yl)pyrimidin-5-yl]-7H-pyrrolo[2,3-d]pyrimidin-4-yl}amino)piperidin-1-yl]prop-2-en-1-one]	7.08	–
C=CC(=O)N1CCC[C@@H](Nc2ncnc3[nH]cc(C4CC4)c23)C1 [Example 37, 1-{(3R)-3-[(5-cyclopropyl-7H-pyrrolo[2,3-d]pyrimidin-4-yl)amino]piperidin-1-yl}prop-2-en-1-one]	6.53	–
C=CC(=O)N1CCC[C@@H](Nc2ncnc3[nH]cc(/C=C/c4ccoc4)c23)C1 [Example 38, 1-[(3R)-3-({5-[(E)-2-(furan-3-yl)ethenyl]-7H-pyrrolo[2,3-d]pyrimidin-4-yl}amino)piperidin-1-yl]prop-2-en-1-one]	5.49	–
C=CC(=O)N1CCC[C@@H](Nc2ncnc3[nH]cc(CC(C)C)c23)C1 [Example 39, 1-[(3R)-3-{[5-(2-methylpropyl)-7H-pyrrolo[2,3-d]pyrimidin-4-yl]amino}piperidin-1-yl]prop-2-en-1-one]	< 5.00	–
C=CC(=O)N1CCC[C@@H](Nc2ncnc3[nH]cc(C=C)c23)C1 [Example 40, 1-{(3R)-3-[(5-ethenyl-7H-pyrrolo[2,3-d]pyrimidin-4-yl)amino]piperidin-1-yl}prop-2-en-1-one]	< 5.00	–
C=C(C(=O)N1CC[C@@H]2CCN(c3ncnc4[nH]ccc34)[C@@H]2C1)C(F)(F)F [Example 41, 1-((3aS,7aS)-1-(7H-Pyrrolo[2,3-d]pyrimidin-4-yl)hexahydro-1H-pyrrolo[2,3-c]pyridin-6 (2H)-yl)-2-(trifluoromethyl)prop-2-en-1-one]	9.00	7.03
C=CC(=O)N1CCC[C@@H](Nc2ncnc3[nH]cc(F)c23)C1 [Example 42, 1-{(3R)-3-[(5-fluoro-7H-pyrrolo[2,3-d]pyrimidin-4-yl)amino]piperidin-1-yl}prop-2-en-1-one]	9.05	7.03
C=CC(=O)N1CCC[C@@H](Nc2ncnc3[nH]cc(C)c23)C1 [Example 43, 1-{(3R)-3-[(5-methyl-7H-pyrrolo[2,3-d]pyrimidin-4-yl)amino]piperidin-1-yl}prop-2-en-1-one]	8.92	7.00
C=CC(=O)N1CCC[C@@H](Nc2ncnc3[nH]cc(CC)c23)C1 [Example 44, 1-{(3R)-3-[(5-ethyl-7H-pyrrolo[2,3-d]pyrimidin-4-yl)amino]piperidin-1-yl}prop-2-en-1-one]	9.52	6.78
C=CC(=O)N1CCC[C@@H](Nc2ncnc3[nH]cc(C#N)c23)C1 [Example 45, 4-{[(3R)-1-acryloylpiperidin-3-yl]amino}-7H-pyrrolo[2,3-d]pyrimidine-5-carbonitrile]	9.00	6.77
C=CC(=O)N1CCC[C@@H](Nc2ncnc3[nH]cc(CCOC)c23)C1 [Example 46, 1-[(3R)-3-{[5-(2-methoxyethyl)-7H-pyrrolo[2,3-d]pyrimidin-4-yl]amino}piperidin-1-yl]prop-2-en-1-one]	8.55	6.52
C#Cc1c[nH]c2ncnc(N3CC[C@H]4CCN(C(=O)C=C)C[C@H]43)c12 [Example 48, 1-[(3aS,7aS)-1-(5-ethynyl-7H-pyrrolo[2,3-d]pyrimidin-4-yl)octahydro-6H-pyrrolo[2,3-c]pyridin-6-yl]prop-2-en-1-one]	9.10	7.00
C=CC(=O)N1CCC[C@@H](Nc2ncnc3[nH]cc(CC(C)(C)O)c23)C1 [Example 53, (R)-1-(3-((5-(2-Hydroxy-2-methylpropyl)-7H-pyrrolo[2,3-d]pyrimidin-4-yl)amino)piperidin-1-yl)prop-2-en-1-one]	8.40	6.72
C=CC(=O)N1CC[C@@H](F)[C@@H](Nc2ncnc3[nH]ccc23)C1 [Example 54, 1-((3S,4R)-3-((7H-Pyrrolo[2,3-d]pyrimidin-4-yl)amino)-4-fluoropiperidin-1-yl)prop-2-en-1-one]	8.77	6.72
